System: panel of 55 breast cancer cell lines
Experiment: Cell growth inhibition assay (Cell Titer Glo, 72 h, 9 doses; GI50, TGI, LC50)
Assay type: cell-based, human
Conditions: value is the negative log10 of mol/L

Compound: Oc1cc(-c2nc(-c3ccccc3)[nH]c2-c2ccncc2)ccc1Cl [L-779450]
- GI50 (BT474 cell line, censored GI50 values): 4.73
- GI50 (BT483 cell line, censored GI50 values): 4.84
- GI50 (HCC38 cell line, censored GI50 values): 4.77
- GI50 (HCC1187 cell line, censored GI50 values): 5.07
- GI50 (HCC1395 cell line, censored GI50 values): 4.54
- GI50 (HCC1419 cell line, censored GI50 values): 4.78
- GI50 (HCC1428 cell line, censored GI50 values): 4.80
- GI50 (HCC1937 cell line, censored GI50 values): 4.84
- GI50 (MDAMB134VI cell line, censored GI50 values): 4.60
- GI50 (MDAMB175VII cell line, censored GI50 values): 5.05
- GI50 (MDAMB361 cell line, censored GI50 values): 5.04
- GI50 (MDAMB436 cell line, censored GI50 values): 5.66
- GI50 (MDAMB468 cell line, censored GI50 values): 4.90
- GI50 (SKBR3 cell line, censored GI50 values): 4.66
- GI50 (SUM52PE cell line, censored GI50 values): 5.13
- GI50 (SUM149PT cell line, censored GI50 values): 5.13
- GI50 (SUM159PT cell line, censored GI50 values): 4.70
- GI50 (UACC812 cell line, censored GI50 values): 4.97
- GI50 (ZR75B cell line, censored GI50 values): 4.51
- GI50 (cell line AU565): 4.48
- GI50 (cell line BT20): 4.44
- GI50 (cell line BT474): 4.73
- GI50 (cell line BT483): 4.84
- GI50 (cell line CAMA1): 4.44
- GI50 (cell line HCC38): 4.77
- GI50 (cell line HCC70): 4.50
- GI50 (cell line HCC1143): 4.39
- GI50 (cell line HCC1187): 5.07
- GI50 (cell line HCC1395): 4.54
- GI50 (cell line HCC1419): 4.78
- GI50 (cell line HCC1428): 4.80
- GI50 (cell line HCC1500): 4.48
- GI50 (cell line HCC1937): 4.84
- GI50 (cell line HCC1954): 4.48
- GI50 (cell line HCC2185): 4.42
- GI50 (cell line HCC3153): 4.48
- GI50 (cell line MCF7): 4.48
- GI50 (cell line MDAMB134V): 4.60
- GI50 (cell line MDAMB175V): 5.05
- GI50 (cell line MDAMB231): 4.49
- GI50 (cell line MDAMB361): 5.04
- GI50 (cell line MDAMB436): 5.66
- GI50 (cell line MDAMB453): 4.48
- GI50 (cell line MDAMB468): 4.90
- GI50 (cell line SKBR3): 4.66
- GI50 (cell line SUM52PE): 5.13
- GI50 (cell line SUM149PT): 5.13
- GI50 (cell line SUM159PT): 4.70
- GI50 (cell line SUM1315MO): 4.62
- GI50 (cell line T47D): 4.48
- GI50 (cell line UACC812): 4.97
- GI50 (cell line ZR75B): 4.51
- GI50 (cell line ZR751): 4.53
